Measured values taken from patent US20190382432A1 (Synbias Pharma AG, priority 2013, published 2019).
Where a name gives a salt, the structure may show the parent alone. Marks after values point to notes of the source that are not given here.

Legend:
Type in all cases: physicochemical
[1] = Particle size distribution by laser diffraction analysis (Mastersizer 2000); conditions: wet laser diffraction in acetone; listed as Sample 1, hydrochloride
Experimental: Laser diffraction analysis was performed in form of wet laser diffraction in acetone: 1750 rpm, 3×20 s cycle time, 60 s background time, without sonication, and 5 min stirring time using a Mastersizer 2000 Particle Size Analyzer (Malvern Instruments Ltd., Malvern, UK) according to the manufacturer's instructions.

[2] = Thermostability under stress conditions (storage at 100 °C for one month), HPLC
Experimental: Sample S was prepared according to the present invention, as described in Example 3 above. Sample M1 was prepared according to Example 1 of WO 2012/163508 A1, as described in Example 7 above. Finally, Sample M2 was prepared according to Example 2 of WO 2012/163508 A1, as described in Example 7 above.
The samples were exposed to a temperature of 100° C. for the time period (in weeks) indicated. The testing was performed as described in the ICH Guideline Q1A (R2) (cf. above). The amount of the degradation product (i.e. doxorubicinone) produced as well as those of various impurities (i.e., doxorubicin and four different impurities of yet unknown identity; all given in % (w/w); “n.d.”=not determined) was determined by HPCL analysis (“LT”=less than).

[3] = Hygroscopic capacity: water content by Karl-Fischer titration after exposure to temperature and relative humidity; conditions: 25 or 40 °C, 40-90% rh; data not shown
Experimental: Coulometric Karl-Fischer titration (KFT; for determining the water content) was performed with an external drying oven (Metrohm 707 KF; operated at 140° C. with N2 purge). The samples were precisely weighed on an analytical balance (10^−5 g).
The testing was performed as described in the ICH guidelines.

[4] = Thermostability on storage at 25, 40 and 100 °C per ICH Q1A (R2), HPLC; conditions: 25, 40, 100 °C; data not shown
Experimental: HPLC and GC analyses were performed according to standard protocols.
The testing was performed as described in the ICH guidelines (cf. inter alia ICH Guideline Q1A (R2)).

COc1cccc2c1C(=O)c1c(O)c3c(c(O)c1C2=O)C[C@@](O)(C(=O)CO)C[C@@H]3O[C@H]1C[C@H](N)[C@H](O)[C@H](C)O1 [Example M1, epirubicin hydrochloride]
D(v/0.5), mean diameter based on the volume of the particles [1]: 4.62 μm | Doxorubicin (NMT 1%) ([2]; 0 weeks): 0.29 % (w/w) | Doxorubicinone (Aglycone) (NMT 1%) ([2]; 0 weeks): < 0.05 % (w/w) | Total Impurities (NMT 2%) ([2]; 0 weeks): 0.30 % (w/w) | Doxorubicin (NMT 1%) ([2]; 1 week, hydrochloride): 0.27 % (w/w) | Doxorubicinone (Aglycone) (NMT 1%) ([2]; 1 week, hydrochloride): 0.52 % (w/w) | Total Impurities (NMT 2%) ([2]; 1 week, hydrochloride): 1.20 % (w/w) | Unknown impurity RRT 1.2 (NMT 0.15%) ([2]; 1 week, hydrochloride): 0.06 % (w/w) | Unknown impurity RRT 1.6 (NMT 0.15%) ([2]; 1 week, hydrochloride): 0.08 % (w/w) | Unknown impurity RRT 1.7 (NMT 0.15%) ([2]; 1 week, hydrochloride): 0.12 % (w/w) | Doxorubicin (NMT 1%) ([2]; 2 weeks): 0.32 % (w/w) | Doxorubicinone (Aglycone) (NMT 1%) ([2]; 2 weeks, hydrochloride): 0.57 % (w/w) | Total Impurities (NMT 2%) ([2]; 2 weeks, hydrochloride): 1.60 % (w/w) | Unknown impurity RRT 1.1 (NMT 0.15%) ([2]; 2 weeks, hydrochloride): 0.11 % (w/w) | Unknown impurity RRT 1.2 (NMT 0.15%) ([2]; 2 weeks, hydrochloride): 0.13 % (w/w) | Unknown impurity RRT 1.6 (NMT 0.15%) ([2]; 2 weeks, hydrochloride): 0.18 % (w/w) | Unknown impurity RRT 1.7 (NMT 0.15%) ([2]; 2 weeks, hydrochloride): 0.16 % (w/w) | Doxorubicin (NMT 1%) ([2]; 3 weeks, hydrochloride): 0.33 % (w/w) | Doxorubicinone (Aglycone) (NMT 1%) ([2]; 3 weeks, hydrochloride): 0.61 % (w/w) | Total Impurities (NMT 2%) ([2]; 3 weeks, hydrochloride): 1.80 % (w/w) | Unknown impurity RRT 1.1 (NMT 0.15%) ([2]; 3 weeks, hydrochloride): 0.14 % (w/w) | Unknown impurity RRT 1.2 (NMT 0.15%) ([2]; 3 weeks, hydrochloride): 0.14 % (w/w) | Unknown impurity RRT 1.6 (NMT 0.15%) ([2]; 3 weeks, hydrochloride): 0.24 % (w/w) | Unknown impurity RRT 1.7 (NMT 0.15%) ([2]; 3 weeks, hydrochloride): 0.20 % (w/w) | Doxorubicin (NMT 1%) ([2]; 4 weeks): 0.33 % (w/w) | Doxorubicinone (Aglycone) (NMT 1%) ([2]; 4 weeks, hydrochloride): 0.61 % (w/w) | Total Impurities (NMT 2%) ([2]; 4 weeks, hydrochloride): 2.3* % (w/w) | Total amount of unknown impurities ([2]; 4 weeks, hydrochloride): 1.36 % (w/w) | Unknown impurity RRT 1.1 (NMT 0.15%) ([2]; 4 weeks, hydrochloride): 0.18 % (w/w) | Unknown impurity RRT 1.2 (NMT 0.15%) ([2]; 4 weeks, hydrochloride): 0.18 % (w/w) | Unknown impurity RRT 1.6 (NMT 0.15%) ([2]; 4 weeks, hydrochloride): 0.46 % (w/w) | Unknown impurity RRT 1.7 (NMT 0.15%) ([2]; 4 weeks, hydrochloride): 0.31 % (w/w)

COc1cccc2c1C(=O)c1c(O)c3c(c(O)c1C2=O)C[C@@](O)(C(=O)CO)C[C@@H]3O[C@H]1C[C@H](N)[C@H](O)[C@H](C)O1 [Example 2, epirubicin hydrochloride]
Hygroscopic capacity compared with the Example 1 monohydrate (TABLE 6-1), in words [3]: almost identical results | Thermostability compared with the Example 1 monohydrate (TABLE 5-1), in words [4]: almost identical results
